{
  "source": "patent US7662810B2",
  "about": "“2-arylmethylazetidine carbapenem derivatives and preparation thereof” (Korea Research Institute of Chemical Technology, priority 2004, dated 2010)",
  "key": {"[1]": {"assay": "Test of Pharmacokinetics in Animals (rats)", "assay_type": "in vivo", "settings": "rat, 20 mg/kg", "experimental": "The pharmacokinetics of the carbapenem derivatives of the present invention was determined using mice. Each of the compounds of Examples 13 and 14 and meropenem (a positive control) was dissolved in distilled water, and mice were orally administered (PO) or subcutaneously injected (SC) at a dosage of 40 mg/kg body weight (I.C.R mice, weighing 22 to 25 g, 4 mice/group). Blood samples were withdrawn from mice tails using heparinated capillaries at 10 min., 20 min., 30 min., 45 min., 1 hour, 2 hours, 3 hours and 4 hours after the administration.\nStandard antibiotic samples were prepared by serial two-fold dilution with control blood. Agar plates were prepared with Müller-Hinton agar medium containing 6.7% sheep blood and 1% Streptococcus pyogenes 77A culture solution, and the diluted standard and blood samples were added to wells formed on the plates. The plate was stored at 4° C. for 1 hour to allow the sample to spread, and incubated at 37° C. for 18 hours. PK (pharmacokinetic) change indicators (AUC, Tmax, Cmax and T1/2) of the test compound concentration remaining in the mouse blood over time were assayed over a set period.\nThen, pharmacokinetical assay (amount of medicament administered was 20 mg/kg) was carried out as above using rats."}, "[2]": {"system": "Staphylococcus aureus 179", "assay": "Measurement of Minimum Inhibitory Concentration (MIC), QRS", "assay_type": "cell-based", "experimental": "(§1) The antibacterial activities of the compounds of the present invention prepared in the above Examples against Gram-positive and Gram-negative bacteria, MRSA and QRS were tested as follows.\n(§2) Respective bacterial strains were inoculated into 3 ml of Fleisch extract broth (beef extract 1%, peptone 1%, NaCl 0.3%, Na2HPO4.12H2O 0.2%, pH 7.4-7.5. 10% horse serum was supplemented for Streptococcus pyogenes and S. facium) and cultured on a shaking incubator at 37° C. for 18 hours. About 10^4 CFU/spot of the cultured bacterial strains were inoculated onto Müller-Hinton agar plates containing serial double dilutions (final concentration of 0.002 to 100 μg/ml) of a test compound employing an automatic inoculator (Dynatech, USA), and incubated at 37° C. for 18 hours. When the incubation was completed, the minimum inhibitory concentration was determined. Meropenem (Yuhan corporation, Korea) and vancomycin (Cj Inco., Korea) were used as standard antibiotics, respectively."}, "[3]": {"system": "Staphylococcus epidermidis 291", "assay": "Measurement of Minimum Inhibitory Concentration (MIC), QRS", "assay_type": "cell-based", "settings": "QRS, Staphylococcus epidermidis 291", "experimental": "as §1, §2"}, "[4]": {"system": "Staphylococcus aureus 241", "assay": "Measurement of Minimum Inhibitory Concentration (MIC), QRS", "assay_type": "cell-based", "experimental": "as §1, §2"}, "[5]": {"system": "Staphylococcus aureus 293", "assay": "Measurement of Minimum Inhibitory Concentration (MIC), QRS", "assay_type": "cell-based", "settings": "QRS, Staphylococcus aureus 293", "experimental": "as §1, §2"}, "[6]": {"system": "Staphylococcus epidermidis 178", "assay": "Measurement of Minimum Inhibitory Concentration (MIC), QRS", "assay_type": "cell-based", "settings": "QRS, Staphylococcus epidermidis 178", "experimental": "as §1, §2"}, "[7]": {"target": "T1, Dihydropeptidase-1 (DHP-1) (Sus scrofa, UniProt P22412)", "T1 sequence (P22412 17-384)": "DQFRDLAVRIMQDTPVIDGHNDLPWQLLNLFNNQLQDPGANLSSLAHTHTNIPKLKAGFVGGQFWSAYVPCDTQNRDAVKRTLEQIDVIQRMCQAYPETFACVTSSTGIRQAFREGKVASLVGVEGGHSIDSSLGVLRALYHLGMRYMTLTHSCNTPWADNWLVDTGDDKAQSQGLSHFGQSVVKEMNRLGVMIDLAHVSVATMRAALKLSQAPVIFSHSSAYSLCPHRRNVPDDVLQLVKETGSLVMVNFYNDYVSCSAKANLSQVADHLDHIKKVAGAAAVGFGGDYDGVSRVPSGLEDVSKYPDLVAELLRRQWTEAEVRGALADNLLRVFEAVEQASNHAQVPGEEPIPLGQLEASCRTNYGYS", "protocol": "(§3) The rate of degradation of the inventive compounds by the action of DHP-1 enzyme extracted from hog kidney was determined as follow.\n(§4) 0.2 unit of the enzyme was allowed to react with the above solution at 30° C., and the absorbance at 299 nm of the remaining medicament was measured to determine the degradation rate. The absorbance was measured at 0, 0.5, 1, 2 and 4 hour points, and T1/2, the time when the concentration of the medicament become the half, was obtained by regression analysis."}, "[8]": {"assay": "Test of Pharmacokinetics in Animals (mice)", "assay_type": "in vivo", "settings": "mouse, 40 mg/kg", "experimental": "The pharmacokinetics of the carbapenem derivatives of the present invention was determined using mice. […] Standard antibiotic samples were prepared by serial two-fold dilution with control blood. […] PK (pharmacokinetic) change indicators (AUC, Tmax, Cmax and T1/2) of the test compound concentration remaining in the mouse blood over time were assayed over a set period."}, "[9]": {"assay": "Acute Toxicity Test", "experimental": "The acute toxicity of the compound of Example 14 was tested using several groups of ICR mice each of 10 mice."}, "[10]": {"target": "T1, Dihydropeptidase-1 (DHP-1)", "assay": "Sensitivity Assay Against Dihydropeptidase-1 (DHP-1)", "settings": "pig, DHP-1 enzyme extracted from hog kidney", "protocol": "as §3, §4"}},
  "note": "Where two headings read alike, the source gives them in different places.",
  "data": [
    {"smiles": "COc1ccc(CN2CC(SC3=C(C(=O)[O-])N4C(=O)[C@H]([C@@H](C)O)[C@H]4[C@H]3C)C2)cc1.[K+]", "note": "[Exam. 14, Potassium(1R,5S,6S)-2-[1-(4-methoxybenzyl)-azetidine-3-yl-thio]-6-[(1R)-1-hydroxylethyl]-1-methylcarbapen-2-em-3-carboxylate]", "values": [
      {"measurement": "AUC, times higher than meropenem", "setting": "[1]; in vivo", "value": 17, "unit": "times"},
      {"measurement": "increase in T1/2 than meropenem", "setting": "[1]; in vivo", "value": "more than 2 times"},
      {"measurement": "AUC (area under blood-medicament concentration curve till 24 hours after administration)", "setting": "[1]; in vivo, po", "value": 330, "unit": "ng·h/mL"},
      {"measurement": "Cmax", "setting": "[1]; in vivo, po", "value": 200, "unit": "ng/mL"},
      {"measurement": "T1/2 (half time of blood-medicament concentration)", "setting": "[1]; in vivo, po", "value": 304, "unit": "min"},
      {"measurement": "Tmax", "setting": "[1]; in vivo, po", "value": 42.6, "unit": "min"},
      {"measurement": "absorption through the oral route", "setting": "[1]; in vivo, po", "value": "absorbed through the oral route to a significant extent"},
      {"measurement": "AUC (area under blood-medicament concentration curve till 24 hours after administration)", "setting": "[1]; in vivo, sc", "value": 34580, "unit": "ng·h/mL"},
      {"measurement": "Cmax", "setting": "[1]; in vivo, sc", "value": 35850, "unit": "ng/mL"},
      {"measurement": "T1/2 (half time of blood-medicament concentration)", "setting": "[1]; in vivo, sc", "value": 41.4, "unit": "min"},
      {"measurement": "Tmax", "setting": "[1]; in vivo, sc", "value": 22.2, "unit": "min"},
      {"measurement": "MIC", "setting": "[2]; QRS, Staphylococcus aureus 179", "value": 0.049, "unit": "µg/mL"},
      {"measurement": "MIC", "setting": "[3]", "value": 0.391, "unit": "µg/mL"},
      {"measurement": "MIC", "setting": "[4]; QRS, Staphylococcus aureus 241", "value": 0.049, "unit": "µg/mL"},
      {"measurement": "MIC", "setting": "[5]", "value": 0.098, "unit": "µg/mL"},
      {"measurement": "MIC", "setting": "[6]", "value": 0.391, "unit": "µg/mL"},
      {"measurement": "T1/2 (time when the concentration of the medicament become the half)", "setting": "[7]", "value": 19.88},
      {"measurement": "AUC, times higher than meropenem", "setting": "[8]; in vivo", "value": "10 to 12", "unit": "times"},
      {"measurement": "increase in T1/2 than meropenem", "setting": "[8]; in vivo", "value": "more than 2 times"},
      {"measurement": "AUC (area under blood-medicament concentration curve till 24 hours from administration)", "setting": "[8]; in vivo, po", "value": 5200, "unit": "ng·h/mL"},
      {"measurement": "Cmax", "setting": "[8]; in vivo, po", "value": 2070, "unit": "ng/mL"},
      {"measurement": "T1/2 (half time of blood-medicament concentration)", "setting": "[8]; in vivo, po", "value": 124, "unit": "min"},
      {"measurement": "Tmax", "setting": "[8]; in vivo, po", "value": 26.4, "unit": "min"},
      {"measurement": "absorption through the oral route", "setting": "[8]; in vivo, po", "value": "absorbed through the oral route to significant extents"},
      {"measurement": "AUC (area under blood-medicament concentration curve till 24 hours from administration)", "setting": "[8]; in vivo, sc", "value": 79660, "unit": "ng·h/mL"},
      {"measurement": "Cmax", "setting": "[8]; in vivo, sc", "value": 69610, "unit": "ng/mL"},
      {"measurement": "T1/2 (half time of blood-medicament concentration)", "setting": "[8]; in vivo, sc", "value": 45.6, "unit": "min"},
      {"measurement": "Tmax", "setting": "[8]; in vivo, sc", "value": 15, "unit": "min"},
      {"measurement": "death", "setting": "[9]; ICR mice, 500, 1,000 and 2,000 mg/kg intraperitoneally, 7 days", "value": "no mice died"},
      {"measurement": "LD50", "setting": "[9]; ICR mice, intraperitoneally injected, observed for 7 days", "value": "higher than 2,000 mg/kg"}
    ]},
    {"smiles": "C[C@@H](O)[C@H]1C(=O)N2C(C(=O)O)=C(S[C@@H]3CN[C@H](C(=O)N(C)C)C3)[C@H](C)[C@H]12", "note": "[Meropenem, reference compound]", "values": [
      {"measurement": "AUC", "setting": "[1]; whole blood, rats, SC, read-out: AUC (area under blood-medicament concentration curve till 24 hours after administration)", "value": 2050, "unit": "ng·h/mL"},
      {"measurement": "Cmax", "setting": "[1]; whole blood, rats, SC, read-out: Cmax", "value": 3920, "unit": "ng/mL"},
      {"measurement": "half-life", "setting": "[1]; whole blood, rats, SC, read-out: T1/2 (half time of blood-medicament concentration) (converted)", "value": 18.6, "unit": "min"},
      {"measurement": "Tmax", "setting": "[1]; whole blood, rats, SC, read-out: Tmax", "value": 15, "unit": "min"},
      {"measurement": "half-life at 500 μg/ml", "setting": "[10]", "value": 1100, "unit": "min"},
      {"measurement": "MIC", "setting": "[2]; Staphylococcus aureus, 179", "value": 0.195, "unit": "µg/mL"},
      {"measurement": "MIC", "setting": "[3]; read-out: MIC", "value": 1.56, "unit": "µg/mL"},
      {"measurement": "MIC", "setting": "[4]; Staphylococcus aureus, 241", "value": 0.195, "unit": "µg/mL"},
      {"measurement": "MIC", "setting": "[5]; read-out: MIC", "value": 0.781, "unit": "µg/mL"},
      {"measurement": "MIC", "setting": "[6]; read-out: MIC", "value": 0.781, "unit": "µg/mL"},
      {"measurement": "AUC", "setting": "[8]; ICR, whole blood, mice, SC, read-out: AUC (area under blood-medicament concentration curve till 24 hours from administration)", "value": 7500, "unit": "ng·h/mL"},
      {"measurement": "Cmax", "setting": "[8]; ICR, whole blood, mice, SC, read-out: Cmax", "value": 13400, "unit": "ng/mL"},
      {"measurement": "half-life", "setting": "[8]; ICR, whole blood, mice, SC, read-out: T1/2 (half time of blood-medicament concentration) (converted)", "value": 25.8, "unit": "min"},
      {"measurement": "Tmax", "setting": "[8]; ICR, whole blood, mice, SC, read-out: Tmax", "value": 19.8, "unit": "min"}
    ]}
  ]
}
